One block for each molecule: values may come before it.
What was measured:
[1] = cited from earlier work
[2] = rats; cited from earlier work
[3] = Comparative dissolution test in distillate water; type: physicochemical; conditions: 5 mg in 10 mL distillate water
Experimental: The suspension was stirred for 1, 5, 10, 15, 20, and 30 minutes and then it was filtered by 0.2 μm disposable syringe filter.

[4] = cited from earlier work; remark: listed apart in the source
[5] = rat, in vivo, po, 10 mg/kg
Experimental: In Vivo Pharmacokinetic Tests Male Sprague-Dawley Rats in Fasted Condition
Comparative In Vivo Pharmacokinetic Tests in Male Sprague-Dawley Rats in Fasted Condition
Both test substances were administered via gastric tube in a dosing volume of 5 ml/kg. The vehicle of the test items was sterile 0.9% NaCl solution and the suspension was kept homogenous by continuous stirring during treatment in order to minimize the error resulting from the sedimentation.
Male Wistar rats (purchased from Laboratory Animal Center, University of Szeged) were maintained on a standard pellet rodent diet (Bioplan Ltd, Isaszeg, Hungary) under temperature and light-controlled conditions with tap water available ad libitum. The acclimatization period was at least 4 days. […] All animals were fasting for 16 hours before oral treatment. […] Water was available immediately after treatment for all animals. […] Serum samples were prepared by centrifugation (7000 rpm, 10 min, 4° C.) of the clotted blood within 60 minutes and were stored at −20° C. till analysis.
An aliquot of 200 μl serum was combined with 20 μl of internal standard working solution and 1.2 ml methanol for protein precipitation. The mixture was vortexed for 1 min and centrifuged at 12000 rpm for 10 min at 4° C. The supernatants were evaporated to dryness under a stream of nitrogen at 40° C. and reconstituted with 200 μl of water-methanol (50:50 v/v) and 20 μl was injected into the HPLC system.
Statistical analysis and graph drawing were carried out be GraphPad Prism 4.0 (GraphPad Software, San Diego, USA).

[6] = monotherapy, 108 of 3260 patients; cited from earlier work
[7] = intravenous dose of 14C-labeled Candesartan

SMILES: CCOc1nc2cccc(C(=O)O)c2n1Cc1ccc(-c2ccccc2-c2nnn[nH]2)cc1 [Candesartan]
dose excreted unchanged in urine ([1]; administered orally): about 26% | effect of food with a high fat content on bioavailability ([1]; after Candesartan Cilexetil administration): does not affect | absolute bioavailability of Candesartan ([1]; following administration of Candesartan Cilexetil): 15% | bound to plasma proteins ([1]; in vivo): > 99% | elimination half-life ([1]; in vivo): approximately 9 hours | penetration of red blood cells ([1]; in vivo): does not penetrate red blood cells | renal clearance ([1]; in vivo): 0.19 mL/min/kg | total plasma clearance ([1]; in vivo): 0.37 mL/min/kg | volume of distribution ([1]; in vivo): 0.13 L/kg | radioactivity recovered in feces [1, 7]: approximately 36% | radioactivity recovered in urine [1, 7]: approximately 59% | accumulation in serum ([1]; repeated once-daily dosing): do not accumulate | crossing of the blood-brain barrier [2]: crosses the blood-brain barrier poorly, if at all | passage across the placental barrier [2]: passes across the placental barrier and is distributed in the fetus

Candesartan Cilexetil content in distilled water by UV-VIS [3]: cannot be detected | AUC15-120 min [5]: 120.8 µg·min/mL | AUC15-360 min [5]: 420.2 µg·min/mL | maximal serum Candesartan concentration (Cmax) [5]: 1612 ± 248 ng/mL | tmax [5]: 2 h
SMILES: CCOc1nc2cccc(C(=O)OC(C)OC(=O)OC3CCCCC3)c2n1Cc1ccc(-c2ccccc2-c2nnn[nH]2)cc1 (racemic) [Candesartan Cilexetil, (±)-1-Hydroxyethyl 2-ethoxy-1-[p-(o-1H-tetrazol-5-ylphenyl)benzyl]-7-benzimidazolecarboxylate, cyclohexyl carbonate (ester)]
solubility in methanol ([4]; methanol): sparingly soluble | solubility in water ([4]; water): practically insoluble | rate of withdrawals due to adverse events [6]: 3.3%
